# Experiments:
# Type in all cases: functional
# Pyricularia grisea [1] = assay: Fungicidal activity against Magnaporthe grisea in rice plant assessed as rice blast disease measured as damage under greenhouse at 6.3 ppm for 8 days by foliar spray compound treated before inoculation
# Pyricularia grisea [2] = assay: Fungicidal activity against Magnaporthe grisea in rice plant assessed as rice blast disease measured as damage under greenhouse at 25 ppm for 8 days by foliar spray compound treated before inoculation
# Pyricularia grisea [3] = assay: Fungicidal activity against Magnaporthe grisea in rice plant assessed as rice blast disease measured as damage under greenhouse by foliar spray for 8 days compound treated before inoculation; details: 192 h
# Pyricularia grisea [4] = assay: Fungicidal activity against Magnaporthe grisea in rice plant assessed as rice blast disease measured as damage under greenhouse at 1.6 ppm for 8 days by foliar spray compound treated before inoculation
# Pyricularia grisea [5] = assay: Fungicidal activity against Magnaporthe grisea in rice plant assessed as rice blast disease measured as damage under greenhouse at 0.4 ppm for 8 days by foliar spray compound treated before inoculation
# Pyricularia grisea [6] = assay: Fungicidal activity against Magnaporthe grisea in rice plant assessed as prevention from rice blast disease measured as lesions under greenhouse at 50 ppm for 8 days by soil drench compound treated before inoculation
# Pyricularia grisea [7] = assay: Fungicidal activity against Magnaporthe grisea in rice plant assessed as prevention from rice blast disease measured as lesions under greenhouse at 3.1 ppm for 8 days by foliar spray compound treated before inoculation
# Pyricularia grisea [8] = assay: Fungicidal activity against Magnaporthe grisea in rice plant assessed as prevention from rice blast disease measured as lesions under greenhouse at 50 ppm for 8 days by foliar spray compound treated before inoculation
# Pyricularia grisea [9] = assay: Fungicidal activity against Magnaporthe grisea in rice plant assessed as prevention from rice blast disease measured as lesions under greenhouse at > 200 ppm for 8 days by foliar spray compound treated before inoculation
# Pyricularia grisea [10] = assay: Fungicidal activity against Magnaporthe grisea in rice plant assessed as prevention from rice blast disease measured as lesions under greenhouse at > 200 ppm for 8 days by soil drench compound treated before inoculation
# Pyricularia grisea [11] = assay: Fungicidal activity against Magnaporthe grisea in rice plant assessed as prevention from rice blast disease measured as lesions under greenhouse at 12.5 ppm for 8 days by foliar spray compound treated before inoculation
# Pyricularia grisea [12] = assay: Fungicidal activity against Magnaporthe grisea in rice plant assessed as prevention from rice blast disease measured as lesions under greenhouse at 200 ppm for 8 days by foliar spray compound treated before inoculation
# Pyricularia grisea [13] = assay: Fungicidal activity against Magnaporthe grisea in rice plant assessed as prevention from rice blast disease measured as lesions under greenhouse at 200 ppm for 8 days by soil drench compound treated before inoculation
# Pyricularia grisea [14] = assay: Fungicidal activity against Magnaporthe grisea in rice plant assessed as prevention from rice blast disease measured as lesions under greenhouse at 12.5 ppm for 8 days by soil drench compound treated before inoculation
smiles,measurement,setting,value
C[C@H](NC(=O)[C@H](C#N)C(C)(C)C)c1ccc(Cl)cc1Cl,Activity,Pyricularia grisea [1],0%
same,Activity,Pyricularia grisea [2],0%
same,MIC,Pyricularia grisea [3],> 20 µg/mL
same,Activity,Pyricularia grisea [4],0%
same,Activity,Pyricularia grisea [5],0%
CC(NC(=O)C(C#N)C(C)(C)C)c1ccc(Cl)cc1Cl (centres undefined),Activity,Pyricularia grisea [6],<=10%
same,Activity,Pyricularia grisea [7],<=10%
C=CC(C)(C)C(C#N)C(=O)NC(C)c1ccc(Cl)cc1OC (centres undefined),Activity,Pyricularia grisea [6],<=10%
same,Activity,Pyricularia grisea [7],<=10%
CC(NC(=O)C(C#N)C(C)(C)C)c1ccc(OC(F)F)cc1 (centres undefined),Activity,Pyricularia grisea [8],<=10%
same,Activity,Pyricularia grisea [6],<=10%
CC(NC(=O)C(C)(C)C#N)c1ccc(Cl)cc1 (centres undefined),Activity,Pyricularia grisea [9],<=10%
same,Activity,Pyricularia grisea [10],<=10%
CC(NC(=O)C1(C#N)CCCCC1)c1ccc(Cl)cc1 (centres undefined),Activity,Pyricularia grisea [9],<=10%
same,Activity,Pyricularia grisea [10],<=10%
CCC(NC(=O)C(C#N)C(C)(C)C)c1ccc(Cl)cc1 (centres undefined),Activity,Pyricularia grisea [9],<=10%
same,Activity,Pyricularia grisea [10],<=10%
C=CC(C)(C)C(C#N)C(=O)NC(C)c1ccc(Cl)cc1Cl (centres undefined),Activity,Pyricularia grisea [11],<=10%
same,Activity,Pyricularia grisea [6],<=10%
CC(NC(=O)C(C#N)C(C)(C)C)c1ccc(F)cc1 (centres undefined),Activity,Pyricularia grisea [10],<=10%
same,Activity,Pyricularia grisea [12],<=10%
C[C@@H](NC(=O)C(C#N)C(C)(C)C)c1ccc(Cl)cc1Cl (mixture of isomers) [DICLOCYMET],Activity,Pyricularia grisea [1],4%
same,Activity,Pyricularia grisea [2],4%
same,MIC,Pyricularia grisea [3],0.08 µg/mL
same,Activity,Pyricularia grisea [4],3%
same,Activity,Pyricularia grisea [5],2%
COC(C(=O)NC(C)c1ccc(Cl)cc1)C(C)(C)C (centres undefined),Activity,Pyricularia grisea [9],<=10%
same,Activity,Pyricularia grisea [10],<=10%
same,Activity,Pyricularia grisea [12],<=10%
COc1ccc(C(C)NC(=O)C(C#N)C(C)(C)C)cc1 (centres undefined),Activity,Pyricularia grisea [13],<=10%
same,Activity,Pyricularia grisea [12],<=10%
C=CC(C)(C)C(C#N)C(=O)NC(C)c1ccc(Cl)cc1F (centres undefined),Activity,Pyricularia grisea [7],<=10%
same,Activity,Pyricularia grisea [14],<=10%
CC(NC(=O)C(C#N)C(C)(C)C)c1ccc(Cl)c(Cl)c1 (centres undefined),Activity,Pyricularia grisea [8],<=10%
same,Activity,Pyricularia grisea [6],<=10%
CC(NC(=O)C(C#N)C1CCCC1)c1ccc(Cl)cc1 (centres undefined),Activity,Pyricularia grisea [8],<=10%
same,Activity,Pyricularia grisea [13],<=10%
CC(NC(=O)C([S+](C)[O-])C(C)(C)C)c1ccc(Cl)cc1 (centres undefined),Activity,Pyricularia grisea [9],<=10%
same,Activity,Pyricularia grisea [10],<=10%
C[C@H](NC(=O)[C@@H](C#N)C(C)(C)C)c1ccc(Cl)cc1Cl,Activity,Pyricularia grisea [1],0%
same,Activity,Pyricularia grisea [2],0%
same,MIC,Pyricularia grisea [3],> 20 µg/mL
same,Activity,Pyricularia grisea [4],0%
same,Activity,Pyricularia grisea [5],0%
CC(C)NC(=O)C(C#N)C(C)(C)C (centres undefined),Activity,Pyricularia grisea [9],<=10%
same,Activity,Pyricularia grisea [10],<=10%
C=CC(C)(C)C(C#N)C(=O)NC(C)c1ccc(Cl)cc1 (centres undefined),Activity,Pyricularia grisea [7],<=10%
same,Activity,Pyricularia grisea [14],<=10%
CC(NC(=O)C(C#N)C(C)(C)C)c1ccccc1Cl (centres undefined),Activity,Pyricularia grisea [13],<=10%
C[C@@H](NC(=O)[C@H](C#N)C(C)(C)C)c1ccc(Cl)cc1Cl,Activity,Pyricularia grisea [1],4%
same,Activity,Pyricularia grisea [2],5%
same,MIC,Pyricularia grisea [3],0.04 µg/mL
same,Activity,Pyricularia grisea [4],4%
same,Activity,Pyricularia grisea [5],3%
CC(C)(C)C(C#N)C(=O)NCCc1ccc(Cl)cc1 (centres undefined),Activity,Pyricularia grisea [10],<=10%
same,Activity,Pyricularia grisea [12],<=10%
CC(NC(=O)C(C#N)C(C)(C)C)c1ccc(Cl)nc1 (centres undefined),Activity,Pyricularia grisea [10],<=10%
same,Activity,Pyricularia grisea [12],<=10%
CC(NC(=O)C(F)C(C)(C)C)c1ccc(Cl)cc1 (centres undefined),Activity,Pyricularia grisea [9],<=10%
same,Activity,Pyricularia grisea [10],<=10%
CC(NC(=O)C(C#N)C(C)(C)C)c1ccc(Cl)cn1 (centres undefined),Activity,Pyricularia grisea [9],<=10%
same,Activity,Pyricularia grisea [10],<=10%
CC(NC(=O)C(O)C(C)(C)C)c1ccc(Cl)cc1 (centres undefined),Activity,Pyricularia grisea [9],<=10%
same,Activity,Pyricularia grisea [10],<=10%
same,Activity,Pyricularia grisea [12],<=10%
CSC(C(=O)NC(C)c1ccc(Cl)cc1)C(C)(C)C (centres undefined),Activity,Pyricularia grisea [10],<=10%
same,Activity,Pyricularia grisea [12],<=10%
CC(NC(=O)C(C#N)c1ccccc1)c1ccc(Cl)cc1 (centres undefined),Activity,Pyricularia grisea [9],<=10%
same,Activity,Pyricularia grisea [10],<=10%
CC(NC(=O)C(C#N)C(C)(C)C)c1ccc(Br)cc1 (centres undefined),Activity,Pyricularia grisea [7],<=10%
same,Activity,Pyricularia grisea [14],<=10%
C#CC(C(=O)NC(C)c1ccc(Cl)cc1)C(C)(C)C (centres undefined),Activity,Pyricularia grisea [10],<=10%
same,Activity,Pyricularia grisea [12],<=10%
CC(NC(=O)C(C#N)C(C)(C)C)c1ccc(OC(F)(F)F)cc1 (centres undefined),Activity,Pyricularia grisea [8],<=10%
same,Activity,Pyricularia grisea [6],<=10%
CC(NC(=O)C(Br)(C#N)C(C)(C)C)c1ccc(Cl)cc1 (centres undefined),Activity,Pyricularia grisea [12],<=10%
same,Activity,Pyricularia grisea [6],<=10%
CC(NC(=O)C1(C#N)CCCC1)c1ccc(Cl)cc1 (centres undefined),Activity,Pyricularia grisea [9],<=10%
same,Activity,Pyricularia grisea [10],<=10%
